Results: PubChem BioAssay AID330 (DTP/NCI, 2004)
Where “and” joins values, the source holds several entries; their conditions need not be identical. Identical values can stand only once. Toxic doses and inconclusive results are not listed. The calls were made as follows: active = survival T/C of 150% or more; inactive = T/C below 125% in these data.

System: P388 leukemia ip, CD2F1 mice, survival T/C
Assay: NCI In Vivo Anticancer Drug Screen. Data for tumor model P388 Leukemia (intraperitoneal) in CD2F1 (CDF1) mice
Conditions: endpoint: median survival time, higher = longer survival
In short: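 Mice carrying the transplanted tumor received test compound or vehicle. Survival was recorded in each group, and the value is the treated-group measurement divided by that of the vehicle-treated control group.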

[1] = dose: 50.0 mg/kg/injection, schedule: Q01DX005 (ip), vehicle: saline with Tween-80
[2] = dose: 100.0 mg/kg/injection, schedule: Q01DX005 (ip), vehicle: saline with Tween-80
[3] = dose: 200.0 mg/kg/injection, schedule: Q01DX005 (ip), vehicle: saline with Tween-80
[4] = dose: 60.0 mg/kg/injection, schedule: Q01DX005 (ip), vehicle: saline with Tween-80
[5] = dose: 120.0 mg/kg/injection, schedule: Q01DX005 (ip), vehicle: saline with Tween-80
[6] = dose: 240.0 mg/kg/injection, schedule: Q01DX005 (ip), vehicle: saline with Tween-80
[7] = dose: 60.0 mg/kg/injection, schedule: Q01DX005 (ip), vehicle: Klucel (hydroxypropylcellulose) (HPC)
[8] = dose: 120.0 mg/kg/injection, schedule: Q01DX005 (ip), vehicle: Klucel (hydroxypropylcellulose) (HPC)
[9] = dose: 240.0 mg/kg/injection, schedule: Q01DX005 (ip), vehicle: Klucel (hydroxypropylcellulose) (HPC)
[10] = dose: 12.5 mg/kg/injection, schedule: Q01DX009 (ip), vehicle: saline with Tween-80
[11] = dose: 50.0 mg/kg/injection, schedule: Q01DX009 (ip), vehicle: saline
[12] = dose: 12.5 mg/kg/injection, schedule: Q01DX005 (ip), vehicle: saline
[13] = dose: 50.0 mg/kg/injection, schedule: Q01DX005 (ip), vehicle: Klucel (hydroxypropylcellulose) (HPC)
[14] = dose: 100.0 mg/kg/injection, schedule: Q01DX005 (ip), vehicle: Klucel (hydroxypropylcellulose) (HPC)
[15] = dose: 200.0 mg/kg/injection, schedule: Q01DX005 (ip), vehicle: Klucel (hydroxypropylcellulose) (HPC)
[16] = dose: 25.0 mg/kg/injection, schedule: Q01DX005 (ip), vehicle: Klucel (hydroxypropylcellulose) (HPC)
[17] = dose: 1.56 mg/kg/injection, schedule: Q01DX009 (ip), vehicle: saline
[18] = dose: 100.0 mg/kg/injection, schedule: Q01DX009 (ip), vehicle: saline
[19] = dose: 200.0 mg/kg/injection, schedule: Q01DX009 (ip), vehicle: saline
[20] = dose: 12.5 mg/kg/injection, schedule: Q01DX009 (ip), vehicle: saline
[21] = dose: 6.25 mg/kg/injection, schedule: Q01DX009 (ip), vehicle: saline

Measured: T/C

CCN(CC)CCCC(C)N1CC2CCCCC2C1 (stereo not drawn)
inactive: [1] 106 % of control | [2] 108 % of control | [3] 107 % of control

CC(C)B1N(C(C)(C)C)B(C(C)C)N(C(C)(C)C)B(C(C)C)N1C(C)(C)C
inactive: [4] 93 % of control | [5] 101 % of control | [6] 104 % of control

Cc1ccc2c(c1)C(O)(CC(=O)c1ccccn1)C(=O)N2 (stereo not drawn)
inactive: [7] 104 % of control | [8] 97 % of control | [9] 104 % of control

CNC1c2ccccc2CCC1O (stereo not drawn)
inactive: dose: 100.0 mg/kg/injection, schedule: Q04DX002 (ip), vehicle: Klucel (hydroxypropylcellulose) (HPC) 100 % of control | dose: 200.0 mg/kg/injection, schedule: Q04DX002 (ip), vehicle: Klucel (hydroxypropylcellulose) (HPC) 96 % of control

CC(NC1=NCCO1)c1cccc2ccccc12 (stereo not drawn)
inactive: dose: 12.5 mg/kg/injection, schedule: Q04DX003 (ip), vehicle: saline with Tween-80 100 % of control | dose: 25.0 mg/kg/injection, schedule: Q04DX003 (ip), vehicle: saline with Tween-80 95 % of control | dose: 50.0 mg/kg/injection, schedule: Q04DX003 (ip), vehicle: saline with Tween-80 100 % of control

CC(=O)OC1CC2CCCCC2CC1[N+](C)(C)C (stereo not drawn)
inactive: [10] 108 % of control | dose: 25.0 mg/kg/injection, schedule: Q01DX009 (ip), vehicle: saline with Tween-80 112 % of control | dose: 50.0 mg/kg/injection, schedule: Q01DX009 (ip), vehicle: saline with Tween-80 103 % of control and 94 % of control | [11] 105 % of control

CN=C(NC)NCCSCc1ccc2ccccc2n1
inactive: [12] 115 % of control | dose: 25.0 mg/kg/injection, schedule: Q01DX005 (ip), vehicle: saline 118 % of control | dose: 50.0 mg/kg/injection, schedule: Q01DX005 (ip), vehicle: saline 102 % of control and 112 % of control

Cc1ccc2oc3c(ccc(=O)n3C)c(=O)c2c1
inactive: dose: 100.0 mg/kg/injection, schedule: Q04DX002 (ip), vehicle: saline with Tween-80 101 % of control | dose: 200.0 mg/kg/injection, schedule: Q04DX002 (ip), vehicle: saline with Tween-80 100 % of control | dose: 400.0 mg/kg/injection, schedule: Q04DX002 (ip), vehicle: saline with Tween-80 98 % of control

CN(C)/C=C/c1ccc([N+](=O)[O-])o1
inactive: dose: 50.0 mg/kg/injection, schedule: Q01DX009 (ip), vehicle: suspension in saline 100 % of control | dose: 100.0 mg/kg/injection, schedule: Q01DX009 (ip), vehicle: suspension in saline 104 % of control | dose: 200.0 mg/kg/injection, schedule: Q01DX009 (ip), vehicle: suspension in saline 118 % of control

O=C1NC(O)c2cccc(Br)c2O1 (stereo not drawn)
inactive: [1] 93 % of control | [2] 107 % of control | [3] 117 % of control

C/C(=N\N=C(N)N)c1cnc(N)nc1C
inactive: [7] 98 % of control | [8] 97 % of control | [9] 100 % of control

CC(=O)Nc1ccc(S(=O)(=O)Nc2cnccn2)cc1
inactive: dose: 100.0 mg/kg/injection, schedule: Q01DX001 (ip), vehicle: saline with Tween-80 93 % of control

Cc1cc(O)c(Br)cc1O
inactive: [13] 100 % of control | [14] 97 % of control | [15] 97 % of control

CCOC(=O)C1C(C)=CC2=Nc3ccccc3NC(=O)C2C1c1ccccc1 (stereo not drawn)
inactive: [16] 104 % of control | [13] 106 % of control

CN(C)CC[CH2][Sn]([CH3])([Br])[Br]
inactive: [17] 100 % of control and 101 % of control

CCO/C=C1/N=C(c2ccccc2Cl)OC1=O
inactive: [4] 106 % of control | [5] 118 % of control | [6] 98 % of control

OC(CI)C(O)C(O)C(O)CI (stereo not drawn)
inactive: dose: 100.0 mg/kg/injection, schedule: Q01DX009 (ip), vehicle: saline with Tween-80 105 % of control and 115 % of control | [18] 98 % of control | dose: 100.0 mg/kg/injection, schedule: Q04DX003 (ip), vehicle: saline with Tween-80 100 % of control and 104 % of control | dose: 132.0 mg/kg/injection, schedule: Q01DX009 (ip), vehicle: saline with Tween-80 122 % of control | [19] 91 % of control | dose: 200.0 mg/kg/injection, schedule: Q04DX003 (ip), vehicle: saline with Tween-80 104 % of control and 113 % of control | dose: 400.0 mg/kg/injection, schedule: Q01DX009 (ip), vehicle: saline 105 % of control | dose: 400.0 mg/kg/injection, schedule: Q04DX003 (ip), vehicle: saline with Tween-80 100 % of control and 113 % of control | dose: 500.0 mg/kg/injection, schedule: Q01DX009 (ip), vehicle: saline 96 % of control

Oc1[nH]c2ccccc2c1N=NC(=S)SCc1ccccc1
inactive: [20] 89 % of control | dose: 25.0 mg/kg/injection, schedule: Q01DX009 (ip), vehicle: saline 87 % of control | [11] 90 % of control

OCCc1nccnn1
inactive: dose: 12.5 mg/kg/injection, schedule: Q04DX003 (ip), vehicle: saline 104 % of control | dose: 25.0 mg/kg/injection, schedule: Q04DX003 (ip), vehicle: saline 107 % of control | dose: 50.0 mg/kg/injection, schedule: Q04DX003 (ip), vehicle: saline 104 % of control | dose: 200.0 mg/kg/injection, schedule: Q04DX003 (ip), vehicle: saline 87 % of control | dose: 400.0 mg/kg/injection, schedule: Q04DX003 (ip), vehicle: saline 86 % of control

Cc1cc2nc3ccc(N)cc3oc-2cc1=[N+](C)C
inactive: [21] 108 % of control | [11] 100 % of control

COc1cc([C@@H]2c3cc4c(cc3[C@H](OC(=O)CCCC(=O)O)[C@H]3COC(=O)[C@H]23)OCO4)cc(OC)c1OC
inactive: dose: 3.12 mg/kg/injection, schedule: Q01DX005 (ip), vehicle: saline 100 % of control | dose: 6.25 mg/kg/injection, schedule: Q01DX005 (ip), vehicle: saline 104 % of control | [12] 110 % of control and 122 % of control

C=C1C(O)C2OC(=O)C(=C)C2C(OC(=O)/C(C)=C/C)CC2(C)OC2C2OC12 (stereo not drawn)
inactive: dose: 4.0 mg/kg/injection, schedule: Q01DX005 (ip), vehicle: Klucel (hydroxypropylcellulose) (HPC) 96 % of control | dose: 8.0 mg/kg/injection, schedule: Q01DX005 (ip), vehicle: Klucel (hydroxypropylcellulose) (HPC) 103 % of control | dose: 16.0 mg/kg/injection, schedule: Q01DX005 (ip), vehicle: Klucel (hydroxypropylcellulose) (HPC) 100 % of control | dose: 32.0 mg/kg/injection, schedule: Q01DX005 (ip), vehicle: Klucel (hydroxypropylcellulose) (HPC) 116 % of control | [13] 115 % of control | dose: 64.0 mg/kg/injection, schedule: Q01DX005 (ip), vehicle: Klucel (hydroxypropylcellulose) (HPC) 116 % of control | [14] 109 % of control | [15] 103 % of control

CCOC(=O)Cn1nc2oc(=O)c(CCN3CCN(c4ccccc4OC)CC3)c(C)c2c1C
inactive: [16] 103 % of control | [13] 100 % of control | [14] 87 % of control | [15] 109 % of control

CCOC(=O)/C=C(\Cl)C(=O)OCC
inactive: dose: 1.56 mg/kg/injection, schedule: Q01DX009 (ip), vehicle: saline with Tween-80 95 % of control | [17] 101 % of control | dose: 3.13 mg/kg/injection, schedule: Q01DX009 (ip), vehicle: saline with Tween-80 104 % of control and 110 % of control | dose: 3.13 mg/kg/injection, schedule: Q01DX009 (ip), vehicle: saline 103 % of control | dose: 6.25 mg/kg/injection, schedule: Q01DX009 (ip), vehicle: saline with Tween-80 111 % of control and 123 % of control | [21] 112 % of control | [10] 111 % of control | [20] 118 % of control

O=C(CN1CCN(c2ccccc2)CC1)n1nnc2ccccc21
inactive: [4] 93 % of control | [5] 87 % of control

CC1=NN(c2cccc(S(=O)(=O)O)c2)C(=O)C1
inactive: dose: 25.0 mg/kg/injection, schedule: Q01DX009 (ip), vehicle: saline sonified 100 % of control | dose: 50.0 mg/kg/injection, schedule: Q01DX009 (ip), vehicle: saline sonified 100 % of control | [11] 89 % of control | dose: 100.0 mg/kg/injection, schedule: Q01DX009 (ip), vehicle: saline sonified 100 % of control | [18] 95 % of control | [19] 96 % of control
